{"source": "patent US20200248178A1", "about": "“COMBINATION THERAPIES FOR TREATING MUSCULAR DYSTROPHY” (Sarepta Therapeutics, Inc., priority 2017, published 2020)", "key": {"[1]": {"system": "patient cells", "details": "cited from earlier work"}, "[2]": {"system": "mouse model of DMD", "details": "cited from earlier work"}, "[3]": {"system": "NF-κB pathways", "details": "phase I, adults; cited from earlier work"}, "[4]": {"system": "NF-κB", "details": "cited from earlier work"}, "[5]": {"system": "Mdx mice", "details": "cited from earlier work"}, "[6]": {"system": "cNF-κB", "details": "cited from earlier work"}, "[7]": {"system": "dystrophin", "assay": "Study 3 (Study 301): dystrophin in muscle biopsy by Western blot", "type": "in vivo, human", "description": "Dystrophin levels in muscle tissue were assessed by Western blot. In the 12 patients with evaluable results, the pre-treatment dystrophin level was 0.16%±0.12% (mean±standard deviation) of the dystrophin level in a healthy subject and 0.44%±0.43% after 48 weeks of treatment with EXONDYS 51® (p<0.05). The median increase after 48 weeks was 0.1%."}, "[8]": {"system": "dystrophin", "assay": "Study 201/202 Week 180 muscle biopsy, Western blot", "type": "in vivo, human", "description": "(§1) All 12 patients who participated in Study 1 continued treatment with open-label EXONDYS 51® weekly for an additional 4 years in Study 2. The 4 patients who had been randomized to placebo were re-randomized 1:1 to EXONDYS 51® 30 or 50 mg/kg/week such that there were 6 patients on each dose. Patients who participated in Study 2 were compared to an external control group. The primary clinical efficacy outcome measure was the 6MWT. […] The average dystrophin protein level after 180 weeks of treatment with EXONDYS 51® was 0.93% of the dystrophin level in healthy subjects.\n(§2) In order to obtain a comprehensive view of dystrophin expression, biopsies from Study 201/202 were analyzed by three complementary assays. First, Western blot was used to quantitate dystrophin following extraction of protein from muscle tissue. Second, immunohistochemical (IHC) images were evaluated by trained, blinded pathologists to assess the percent dystrophin positive fibers (PDPF), providing information on sarcolemma localization and distribution of dystrophin in muscle fibers. Finally, the IHC images were also assessed by a computer algorithm to measure fiber intensity and to quantify dystrophin at the sarcolemmal membrane."}, "[9]": {"system": "dystrophin", "assay": "Study 201/202 Week 180 biopsy, IHC percent dystrophin positive fibers (PDPF)", "type": "in vivo, human", "description": "as §2"}, "[10]": {"system": "dystrophin", "assay": "Study 201/202 Week 180 biopsy, IHC fiber intensity", "type": "in vivo, human", "description": "as §2"}, "[11]": {"system": "DMD patients amenable to exon 51 skipping", "assay": "6 Minute Walk Test, Study 201/202 vs external control", "type": "in vivo, human", "description": "In Study 1, patients were randomized to receive weekly infusions of EXONDYS 51° (30 mg/kg, n=4); EXONDYS 51° (50 mg/kg, n=4), or placebo (n=4) for 24 weeks. The primary endpoint was dystrophin production; a clinical outcome measure, the 6-minute walk test (6MWT), was also assessed. The 6MWT measures the distance that a patient can walk on a flat, hard surface in a period of 6 minutes.\nas §1\nThe pre-specified criteria for identification of patients for the external control groups were based on the inclusion criteria for Study 201/202. These included baseline age, steroid use and specific DMD mutation. Each of these represent key prognostic factors that enable identification of a relatively homogenous population that would be expected to decline on the 6MWT.\nA group with DMD mutations amenable to exon 51 skipping therapy (N=13, primary external control group).\nThe 6MWT assessments in both Study 201/202 and the external registries were conducted in a standardized manner according to international guidelines."}, "[12]": {"system": "DMD patients amenable to exon 51 skipping", "assay": "Loss of ambulation, Study 201/202 vs external controls", "type": "in vivo, human", "description": "Ambulatory compromise and irreversible loss of ambulation (LOA) are hallmarks of the progressive muscle degeneration characteristic of DMD. It is a reliable overall indicator of the severity of disease progression and strongly correlates with functional measures such as the 6MWT; it is also less influenced by motivational factors. Furthermore, LOA predicts other major disease milestones such as the need for ventilatory support and survival (Bello 2016). Once confined to a wheelchair, other symptoms tend to follow in rapid succession. Consistent with results of the 6MWT, fewer eteplirsen treated boys lost ambulation (2/12) compared to the external control patients who were amenable to exon 51 skipping therapy (10/13) over the four year time period.\nKaplan-Meier analyses for loss of ambulation were conducted, accounting for missing data. At year three the estimated probability for loss of ambulation was 17% for eteplirsen treated boys compared to 46% of boys from both external control cohorts. At year four, Kaplan-Meier estimates of loss of ambulation was 17% for eteplirsen treated boys compared to 85% for the external control boys amenable to exon 51 skipping. This difference in loss of ambulation over the 4-year period was statistically significant, with a nominal p-value of 0.011 (FIG. 8)."}, "[13]": {"system": "DMD patients", "assay": "North Star Ambulatory Assessment (NSAA)", "type": "in vivo, human", "details": "end of year three; vs Italian Telethon group", "description": "The NSAA is a clinician-reported outcome instrument specifically designed to measure function in ambulatory patients with DMD. The 17 items are each scored on a 0-2 ordinal scale and include assessments of abilities such as rising from the floor, climbing and descending a step, 10 meter walk/run and lifting the head. Over the first year, both the eteplirsen treated boys and the Italian Telethon group declined at a similar rate. However, following year one, as was observed on 6MWT, the decline in function for the eteplirsen group slowed and by the end of year three there was a 2.4 point greater decline for the untreated boys. This difference is of clinical relevance and may represent loss or impairment of up to 2 activities of daily living."}, "[14]": {"system": "DMD patients", "assay": "Ability to rise from supine without external support", "type": "in vivo, human", "details": "by year three; external control 8%", "description": "The ability to rise from supine is a critical activity for DMD patients, is one of the early abilities to be lost and may be predictive of loss of ambulation. In an analysis comparing the ability to rise from a supine position (without external support), 92% of eteplirsen treated vs 85% external control patients had the ability to rise without external support at baseline. By year three, 55% of eteplirsen vs 8% of external control patients had the ability to rise without external support."}, "[15]": {"system": "DMD patients", "assay": "Pulmonary function tests (FVC % predicted)", "type": "in vivo, human", "details": "literature >5% annual decline", "description": "In some embodiments, MEP may decline before changes in other pulmonary function tests, including MIP and FVC. In certain embodiments, MEP may be an early indicator of respiratory dysfunction. In certain embodiments, FVC may be used to measure the total volume of air expelled during forced exhalation after maximum inspiration. In patients with DMD, FVC increases concomitantly with physical growth until the early teens. However, as growth slows or is stunted by disease progression, and muscle weakness progresses, the vital capacity enters a descending phase and declines at an average rate of about 8 to 8.5 percent per year after 10 to 12 years of age. In certain embodiments, MIP percent predicted (MIP adjusted for weight), MEP percent predicted (MEP adjusted for age) and FVC percent predicted (FVC adjusted for age and height) are supportive analyses.\nRespiratory function in DMD is progressively impaired over time as the dystrophic process affects respiratory muscles, including the diaphragm, leading to significant morbidity and mortality. Eteplirsen treated boys had slower deterioration of respiratory muscle function as measured by FVC % predicted (decrease of ˜2.5% per year) when compared to data from the published literature (>5% annual decline). […]"}, "[16]": {"system": "immune response", "design": "species or system juvenile rats", "details": "rat, in vivo", "description": "Phosphorothioates are known to cause a number of other target organ toxicities in animals, including complement activation and pro-inflammatory effects, coagulopathies, thrombocytopenia, vascular injury, and hepatic Kuppfer cell basophilia (Levin 1998; Monteith 1999; Levin 2001; Henry 2008; Frazier 2014; Engelhardt 2015; Frazier 2015)."}, "[17]": {"system": "exon 51 of dystrophin pre-mRNA", "details": "normal human skeletal muscle cells or DMD patient muscle cells; cited from earlier work"}, "[18]": {"system": "exon 51 of dystrophin pre-mRNA", "details": "hDMD mouse model; cited from earlier work"}}, "note": "Values joined by “and” are separate entries in the source; they are usually repeats but may differ in a detail not shown here. Equal entries are not always repeated."}
{"molecule": "O=C1CN(/N=C/c2ccc(-c3ccc([N+](=O)[O-])cc3)o2)C(O)=N1", "note": "[dantrolene]", "values": [{"measurement": "antisense-mediated exon skipping", "setting": "[1]", "result": "enhance antisense-mediated exon skipping"}, {"measurement": "antisense-mediated exon skipping", "setting": "[2]", "result": "enhance antisense-mediated exon skipping"}]}
{"molecule": "CC/C=C\\C/C=C\\C/C=C\\C/C=C\\C/C=C\\C/C=C\\CCC(=O)NCCNC(=O)c1ccccc1O", "note": "[CAT-1004, N-(2-[(4Z,7Z,10Z,13Z,16Z,19Z)-docosa-4,7,10,13,16,19-hexaenamido]ethyl)-2-hydroxybenzamide]", "values": [{"measurement": "safety and tolerability", "setting": "[3]", "result": "safe, well tolerated"}]}
{"molecule": "CC/C=C\\C/C=C\\C/C=C\\C/C=C\\C/C=C\\CCCC(=O)NCCNC(=O)c1ccccc1O", "note": "[CAT-1041]", "values": [{"measurement": "phenotype", "setting": "[4]; GRMD dog, long-term treatment", "result": "improves the phenotype"}, {"measurement": "diaphragm function", "setting": "[4]; dog DMD model", "result": "improved diaphragm function"}, {"measurement": "exercise endurance", "setting": "[5]; mdx mice", "result": "increased exercise endurance"}, {"measurement": "inflammation and fibrosis", "setting": "[5]; mdx mice", "result": "reduced inflammation and fibrosis"}, {"measurement": "muscle function", "setting": "[5]; mdx mice", "result": "preserves muscle function"}, {"measurement": "muscle fibrosis", "setting": "[5]; mdx mice, long-term studies", "result": "reduces muscle fibrosis"}, {"measurement": "skeletal muscle weight", "setting": "[5]; mdx mice, long-term studies", "result": "increases skeletal muscle weight"}, {"measurement": "phenotype", "setting": "[5]; mdx mouse, long-term treatment", "result": "improves the phenotype"}, {"measurement": "diaphragm function", "setting": "[5]; mouse DMD model", "result": "improved diaphragm function"}, {"measurement": "cNF-κB activation in vitro", "setting": "[6]", "result": "inhibit cNF-κB activation in vitro"}]}
{"molecule": "Eteplirsen", "values": [{"measurement": "Week 48 % normal dystrophin", "setting": "[7]; 30 mg/kg weekly, week 48, individual patients 1-12 and mean, listed as EXONDYS 51, 30 mg/kg", "result": "0.10 % normal dystrophin and 1.02 % normal dystrophin and 0.30 % normal dystrophin and 0.42 % normal dystrophin and 1.57 % normal dystrophin and 0.12 % normal dystrophin and 0.47 % normal dystrophin and 0.09 % normal dystrophin and 0.21 % normal dystrophin and 0.26 % normal dystrophin and 0.36 % normal dystrophin and 0.37 % normal dystrophin"}, {"measurement": "median increase in dystrophin after 48 weeks", "setting": "[7]; 12 evaluable patients", "result": 0.1, "unit": "%"}, {"measurement": "dystrophin level after 48 weeks of treatment (mean±standard deviation)", "setting": "[7]; 12 evaluable patients, 30 mg/kg weekly, p<0.05 vs pre-treatment", "result": "0.44%±0.43%"}, {"measurement": "Change from Baseline % normal dystrophin", "setting": "[7]; week 48 vs pre-treatment baseline, individual patients 1-12 and mean, listed as EXONDYS 51", "result": "0.06 % normal dystrophin and 0.85 % normal dystrophin and −0.07 % normal dystrophin and 0.25 % normal dystrophin and 1.33 % normal dystrophin and 0.01 % normal dystrophin (2×) and 0.43 % normal dystrophin and 0.07 % normal dystrophin and 0.03 % normal dystrophin and 0.13 % normal dystrophin and 0.31 % normal dystrophin"}, {"measurement": "Difference of Means (Treated vs. Untreated)", "setting": "[8]; Western Blot, Week 180", "result": "+0.85%"}, {"measurement": "Treated (Mean % Dystrophin of Normal)", "setting": "[8]; Western Blot, Week 180", "result": 0.93, "unit": "%"}, {"measurement": "Fold Increase in de novo dystrophin", "setting": "[8]; Western Blot, Week 180, relative to untreated controls", "result": 11.6, "unit": "fold"}, {"measurement": "average dystrophin protein level after 180 weeks of treatment", "setting": "[8]; Western blot, eleven patients, 30 or 50 mg/kg/week", "result": "0.93 % of the dystrophin level in healthy subjects"}, {"measurement": "Difference of Means (Treated vs. Untreated)", "setting": "[9]", "result": "+16.27%"}, {"measurement": "Treated (Mean % Dystrophin of Normal)", "setting": "[9]", "result": 17.39, "unit": "%"}, {"measurement": "Fold Increase", "setting": "[9]; treated vs untreated", "result": 15.5, "unit": "fold"}, {"measurement": "Difference of Means (Treated vs. Untreated)", "setting": "[10]", "result": "+13.20%"}, {"measurement": "Treated (Mean % Dystrophin of Normal)", "setting": "[10]", "result": 22.61, "unit": "%"}, {"measurement": "Fold Increase", "setting": "[10]; treated vs untreated", "result": 2.4, "unit": "fold"}, {"measurement": "6MWT treatment benefit in sensitivity analyses", "setting": "[11]; four year results, covariates age, 6MWT, steroid use", "result": "> 100", "unit": "meter"}, {"measurement": "6MWT advantage vs external control", "setting": "[11]; year four, p=0.0005", "result": 162, "unit": "meter"}, {"measurement": "6MWT advantage vs external control", "setting": "[11]; year three, N=12 vs N=13, p=0.005", "result": 148, "unit": "meter"}, {"measurement": "boys who lost ambulation", "setting": "[12]; over a three year time period, external control (any exon skipping) 18/50", "result": "2/12"}, {"measurement": "boys who lost ambulation", "setting": "[12]; over the four year time period, external control 10/13", "result": "2/12"}, {"measurement": "Kaplan-Meier estimate of loss of ambulation", "setting": "[12]; year four, external control 85%, p 0.011", "result": 17, "unit": "%"}, {"measurement": "Kaplan-Meier estimated probability for loss of ambulation", "setting": "[12]; year three, external controls 46%", "result": 17, "unit": "%"}, {"measurement": "NSAA: greater decline for the untreated boys", "setting": "[13]", "result": 2.4, "unit": "point"}, {"measurement": "patients with ability to rise without external support", "setting": "[14]", "result": 55, "unit": "%"}, {"measurement": "FVC % predicted decrease", "setting": "[15]", "result": "~2.5", "unit": "% per year"}, {"measurement": "effect on the immune response", "setting": "[16]", "result": "no adverse effect on the immune response"}, {"measurement": "induction of exon 51 skipping in vitro", "setting": "[17]", "result": "potent inducer of exon 51 skipping"}, {"measurement": "exon 51 skipping in vivo", "setting": "[18]", "result": "confirmed in vivo"}]}
